Source: PMC7179112, “Antimicrobial, Antioxidant, and Anticancer Activities of Some Novel Isoxazole Ring Containing Chalcone and Dihydropyrazole Derivatives” (Molecules, 2020)
Values after ≈ are worked out from the molar mass of the structure shown.

Key:
[1] = tested on: Human Normal Cells (L02); assay: MTT assay toxicity on normal cells; assay type: cell-based
[2] = tested on: Aspergillus niger and Candida tropicalis; assay: Antifungal activity (strain not named); assay type: cell-based
Protocol: (§1) The target chalcones (17–31) and pyrazolines (32–46) were tested for their antimicrobial activities by serial tube dilution method against two types of bacterial and fungal strains (Table 1 and Table 2). The bacterial strains used for the testing, including Gram-positive Staphylococcus aureus and Gram-negative Pseudomonas aeruginosa, whereas the fungal strains employed were Aspergillus niger and Candida tropicalis.
(§2) The antibacterial and antifungal activity of the novel chalcones (17 to 31) and dihydropyrazoles (32 to 46) against the selected bacterial and fungal strains was assessed by following the procedure described in our previous paper.

[3] = tested on: Pseudomonas aeruginosa; assay: Antibacterial activity, serial tube dilution method; assay type: cell-based; details: for MIC: Pseudomonas aeruginosa, Gram-negative, serial tube dilution, read-out: MIC P aeruginosa
Protocol: as §1, §2

[4] = tested on: Staphylococcus aureus; assay: as above; assay type: cell-based; details: for MIC: Staphylococcus aureus, Gram-positive, serial tube dilution, read-out: MIC S aureus
Protocol: as §1, §2

[5] = tested on: Aspergillus niger; assay: Antifungal activity, serial tube dilution method; assay type: cell-based
Protocol: as §1, §2

[6] = tested on: Candida tropicalis; assay: Antifungal activity, serial tube dilution method; assay type: cell-based; details: read-out: MIC C tropicalis
Protocol: as §1, §2

[7] = tested on: Staphylococcus aureus and Pseudomonas aeruginosa; assay: Antibacterial activity (strain not named); assay type: cell-based; details: text/figure value, strain not named
Protocol: as §1, §2

[8] = DPPH free radical scavenging assay; details: antioxidant activity; average of three independent experiments
Protocol: The antioxidant activity of all 30 compounds was assessed using 1,1-diphenyl-2-picrylhydrazine (DPPH) free radical scavenging assay and the results are the average of three independent experiments (Table 3). Gallic acid was employed as a positive control. […] In the disubstituted series (20–25), compound 25 with substitutions at position 3 and 5 on the phenyl ring gave the highest activity of 9 µg/mL.
The purpose of this study was to evaluate the antioxidant activity of chalcones and pyrazolines using the DPPH free radical assay. The percentage of antioxidant activity (AA%) of all the compounds was assessed by the DPPH free radical assay. The measurement of the DPPH radical scavenging activity was performed according to methodology described by Brand-Williams et al. The samples were reacted with the stable DPPH radical in an ethanol solution. A 0.1 mM solution of DPPH was prepared by dissolving DPPH in methanol. Gallic acid was taken as a reference standard and different concentrations of test samples (5–100 µg/mL) and standard (1.0, 2.5, and 5.0 µg/mL) were prepared using methanol. One milliliter of 0.1 mM DPPH solution was added to 3 mL of all concentrations of test samples and standard separately. These mixtures were kept in dark for about 30 min and the absorbance was measured at 517 nm. The capability to scavenge the DPPH radical was calculated using the formula:(1) DPPH scavanged (%)= Absorbance of control−Absorbance of sample/Absorbance of control∗100 when DPPH reacted with an antioxidant compound and was reduced, the change in color (from deep violet to light yellow) was read [Absorbance (Abs)] at 517 nm after […] of reaction using a UV-VIS spectrophotometer.

[9] = tested on: prostate cancer cell line, DU-145; assay: MTT assay anticancer activity; assay type: cell-based; details: Homo sapiens, MTT assay, mean ± SD (n = 3)
Protocol: All the 30 compounds were evaluated for their anticancer potency against the prostate cancer cell line, DU-145, employing colorimetric tetrazolium dye (MTT) assay. […] Among the disubstituted series 20–25, substitution at position 3 and 4 (compound 24) produced the best activity but was lower than the standard. […] Similar phenomena can be seen among the dihydropyrazole series.
The in vitro anticancer activity of chalcones (17 to 31) and dihydropyrazoles (32 to 46) was evaluated by the Mosmann’s MTT assay as described previously.

[10] = tested on: bacterial and fungal strains (S. aureus, P. aeruginosa, A. niger, C. tropicalis); assay: Antibacterial and antifungal activity (all strains); assay type: cell-based; details: range over bacterial and fungal strains
Protocol: as §1, §2

[11] = text/figure value, strain not named

Row | SMILES | IC50 [1] [µg/mL] | MIC [2, 11] [µg/mL] | MIC [3] [µg/mL] | fold improvement in the antibacterial activity compared to compound 38 ([3]; second of two values, P aeruginosa inferred from Table 2) [fold] | MIC [4] [µg/mL] | fold improvement in the antibacterial activity compared to compound 38 ([4]; first of two values, S aureus inferred from Table 2) [fold] | MIC [5] [µg/mL] | MIC [6] [µg/mL] | MIC [7] [µg/mL] | DPPH assay IC50 [8] [µg/mL] | IC50 [9] [µg/mL] | MIC [10] [µg/mL] | IC50 [2] [µg/mL] | antifungal MIC [2, 11] [µg/mL] | antibacterial MIC [7] [µg/mL]
1 | COc1cc(OC)c(C2CC(c3ccno3)=NN2C(N)=O)c(OC)c1 (stereo not drawn) [Compound 43] | > 40 | 2 (≈ 5.77 µM) | 4 (≈ 11.5 µM) | 4 | 4 (≈ 11.5 µM) | 8 | 2 (≈ 5.77 µM) | 2 (≈ 5.77 µM) | 4 (≈ 11.5 µM) | 6 ± 1 | 21 ± 2 (≈ 60.6 µM) |  |  |  | 
2 | COc1ccc(/C=C/C(=O)c2ccno2)c(OC)c1OC [Compound 26] | > 40 |  | 64 (≈ 221 µM) |  | 64 (≈ 221 µM) |  | 128 (≈ 442 µM) | 128 (≈ 442 µM) |  | 6 ± 1 | 10 ± 2 (≈ 34.6 µM) | 64 to 256 (≈ 221 to 885 µM) |  |  | 
3 | COc1cc(Cl)c(C2CC(c3ccno3)=NN2C(N)=O)c(OC)c1 (stereo not drawn) [Compound 46] | > 40 |  | 8 (≈ 22.8 µM) |  | 8 (≈ 22.8 µM) |  | 0.5 (≈ 1.43 µM) | 0.5 (≈ 1.43 µM) | 8 (≈ 22.8 µM) | 62 ± 1 | 12 ± 2 (≈ 34.2 µM) |  | 2 ± 1 (≈ 5.7 µM) | 0.5 | 
4 | COc1cc(/C=C/C(=O)c2ccno2)cc(OC)c1 [Compound 25] | > 40 |  | 256 (≈ 987 µM) |  | 256 (≈ 987 µM) |  | 256 (≈ 987 µM) | 512 (≈ 1970 µM) |  | 9 ± 1 | 12 ± 1 (≈ 46.3 µM) | 64 to 256 (≈ 247 to 987 µM) |  |  | 
5 | COc1cc(OC)c(/C=C/C(=O)c2ccno2)c(OC)c1 [Compound 28] | > 40 | 2 (≈ 6.91 µM) | 1 (≈ 3.46 µM) |  | 1 (≈ 3.46 µM) |  | 2 (≈ 6.91 µM) | 2 (≈ 6.91 µM) | 1 (≈ 3.46 µM) | 5 ± 1 | 30 ± 2 (≈ 104 µM) |  |  |  | 1
6 | COc1cc(/C=C/C(=O)c2ccno2)cc(OC)c1OC [Compound 29] | > 40 |  | 128 (≈ 442 µM) |  | 64 (≈ 221 µM) |  | 128 (≈ 442 µM) | 256 (≈ 885 µM) |  | 8 ± 2 | 8 ± 2 (≈ 27.7 µM) | 64 to 256 (≈ 221 to 885 µM) |  |  | 
7 | COc1cccc(/C=C/C(=O)c2ccno2)c1 [Compound 18] | > 40 |  | 128 (≈ 558 µM) |  | 128 (≈ 558 µM) |  | 256 (≈ 1120 µM) | 256 (≈ 1120 µM) |  | 38 ± 2 | 20 ± 1 (≈ 87.2 µM) | 64 to 256 (≈ 279 to 1120 µM) |  |  | 
